Ends that are not written are not given here.
How the values were obtained:
[1] = test system: dynactin subunit p150Glued; experiment: Expression of p150Glued in ex-vivo human skin biopsies (immunostaining); type: cell-based; settings: 100 ppm stock diluted at 1%, twice a day, 48 hours
Method: Samples of ex-vivo human skin biopsies from a person, were cultured at the air/liquid interface. The samples were treated twice a day with a stock solution of peptide SEQ ID NO: 7 at 100 ppm, diluted at the 1%, for 48 hours.
Immunostaining was then performed by means of an antibody directed to p150Glued subunit (REF.Santacruz sc-9804), followed by a secondary antibody, coupled with a green fluorescent marker (REF Invitrogen, A11055). The skin sections were then examined using Nikon® Eclipse 80i microscope.
Quantification was carried out with VOLOCITY® image analysis software.

[2] = test system: supranuclear organization of melanosomes in ex-vivo skin; experiment: Microparasol supranuclear organization in ex-vivo skin (light and electron microscopy); type: cell-based, human; settings: 0.5% (light microscopy) or 1% (electron microscopy), 48 hours
Method: 6 mm diameter punch biopsies were obtained from a person (light microscopy) and a person (electron microscopy) […]. They were cultivated on culture medium containing 50% of DMEM 1 g/L glucose (Lonza) and 50% of Ham's-F12 (Lonza) supplemented with 10% of FBS (Lonza), 2 mM of L-glutamine (Lonza) and 100 μg/ml of PRIMOCIN™ (InvivoGen). Skin biopsies were maintained at 37° C. in a humidified atmosphere containing 5% of CO2.
The stock solution of peptide compound SEQ ID NO: 7 was diluted at 0.5% or 1% before use. The biopsies were treated, or not, in duplicate, twice a day with 0.5% (light microscopy) or 1% (electron microscopy) of peptide compound SEQ ID NO: 7 for 48 hours.
After skin culture, tissues were fixed for 4 hours in buffered 10% formalin. Samples were transferred to baths with ethanol progressively concentrated to remove water, then followed by two baths of xylene to remove the alcohol, and finally embedded in molten paraffin wax. Embedded skin biopsies were then cut with a microtome (Shandon) into 4 μm thick sections and placed on SUPERFROST PLUS™ slides (Thermo Scientific).
Sections were deparaffinized and rehydrated with several successive xylene, alcohol and water baths. Then, 100 μl of Stock solution were added on each section and slides were incubated 10 minutes at 60° C. […]

[3] = test system: cyclobutane pyrimidine dimers (CPDs) in NHEM; experiment: Amount of cyclobutane pyrimidine dimers (CPDs) in melanocytes after UVB (immunostaining); type: cell-based, human; settings: UVB 75 mJ/cm^2
Method: DNA damages induced by UVB radiation can be monitored by quantifying the amount of cyclobutane pyrimidine dimers (CPDs), which are formed after conformational changes in the DNA structure. […] The quantification of CPDs was carried out by immunohistochemical assay.
NHEM (normal human epidermis melanocytes) were grown in Melanocyte Growth Medium (PromoCell) supplemented with 1 ng/ml human basic fibroblast growth factor, 52 μg/ml medium bovine pituitary extract, 0.5 μg/ml hydrocortisone, 5 μg/ml human recombinant insulin, 10 ng/ml phorbol 12-myristate 13-acetate (PMA) and 100 μg/ml of PRIMOCIN (In vivoGen). When the cells were sub-cultured for the experiment, the same medium depleted in PMA was used. Cells were maintained at 37° C. in a humidified atmosphere containing 5% of CO2.
Cells were treated, or not, in duplicate, twice a day for 48 hours with a solution of peptide compound SEQ ID NO: 7 at 100 ppm, diluted at 0.5% or 1% before use. Then, they were irradiated, or not, with a 75 mJ/cm^2 UVB dose using a specific oven to ensure the homogeneity of the treatment. […]
Three images per condition were analyzed. Each picture was converted in grey levels and analyzed with Image-Pro Analyzer 6.3 software (MediaCybernetics, Inc.) which generated a histogram representing the number of pixels per intensity. The sum of all intensities was calculated. […]

[4] = test system: normal human keratinocytes (NHK); experiment: Comet assay on NHK cells irradiated with UVB; type: cell-based
Method: (§1) NHK and NHEM were placed in culture for 24 hours in the presence of a solution of peptide compound SEQ ID NO: 7 at 50 ppm diluted at 1% before use, then irradiated with UVB radiation in an amount of 30 mJ/cm^2 for NHEM and 60 mJ/cm^2 for NHK. A control condition was also used without a peptide active agent. The cells were then detached from their support by trypsin, then centrifuged at 900 rpm for 5 minutes in order to concentrate them and count them.
(§2) A defined number of cells (25,000 cells) was then embedded in a Low Melting agarose gel at 0.75%, then deposited on a glass slide previously coated with 1% agarose. The slides were then immersed in a lysis solution for 1 hour 30 minutes at 4° C., then in an alkaline solution for 20 minutes at 4° C. The cells were thus lysed and the DNA was denatured. The slides were immersed in an electrophoresis solution before an electric field (20 V-250 mA) is applied. The DNA thus denatured was subjected to migration in the agarose gel at 4° C. The application of a fluorescent DNA dye on the slides (propidium iodide at 2 μg/ml) makes it possible to observe, under the microscope, DNA appearing in the form of comets if it has been damaged.
(§3) Finally, quantification software makes it possible to determine the Tail Moment, means applied to each condition tested. […]

[5] = test system: normal human epidermal melanocytes (NHEM); experiment: Comet assay on NHEM cells irradiated with UVB; type: cell-based; settings: peptide 1% (0.5 ppm) 24 hours pretreatment + UVB 30 mJ/cm^2
Method: as §1, §2, §3

[6] = test system: keratinocytes containing melanosomes (NHK/NHEM co-culture); experiment: Frequency of keratinocytes containing melanosomes in NHK/NHEM co-culture after p150Glued siRNA; type: cell-based, human; settings: after 10 nM p150Glued siRNA, 48 hours
Method: Normal human primary keratinocytes (NHK) and normal human epidermal melanocytes (NHEM) were co-cultured (ratio: 1 melanocyte/4 keratinocytes) in Keratinocyte Serum Free Medium (KSFM, GIBCO) supplemented with 50 μg/ml bovine pituitary extract, 5 ng/ml human recombinant EGF (GIBCO) and 100 μg/ml Primocin™ (INVIVOGEN). Cells were maintained at 37° C. in a humidified atmosphere containing 5% CO2.
NHK and NHEM cells co-seeded for 48 hours were treated, or not, in duplicate, once with 10 nM of p150Glued-specific siRNA.
Cells were then treated, or not, in duplicate, twice a day for 48 hours with a solution of peptide compound SEQ ID NO: 7 at 100 ppm, diluted at 0.5% or 1% before use, without medium change.
Cells were rinsed with PBS and fixed with cold methanol for 4 minutes. Cellular membranes were permeabilized using 0.1% X-100 Triton (Fisher Scientific) for 10 minutes. Unspecific binding sites were blocked, then cells were incubated with the primary antibodies directed to melanosomes (mouse monoclonal anti-“pmel17” Abcam, ab34165 and rabbit monoclonal anti “keratin-14” Abcam, ab51054) diluted in PBS, for 1 hour and a half, under agitation, at room temperature, in a damp room. […]
Three images per condition were analyzed. […] The frequency of keratinocyte containing melanosomes was evaluated and expressed in percentage. […]

Q: What does the source list for “Asp-Leu-Lys-Lys-NH2 (DLKK-NH2) [SEQ ID NO: 7]”?
A: increase of the dynactin subunit p150Glued staining [1]: 80%; supranuclear organization of melanosomes above the nucleus [2]: better supranuclear organization of melanosomes; change of CPDs after UVB compared to the non treated condition ([3]; pretreated 48 hours with 0.5% (0.5 ppm)): −39%; change of CPDs after UVB compared to the non treated condition ([3]; pretreated 48 hours with 1% (1 ppm)): −59%; reduction in Tail Moment versus UVB condition ([4]; peptide 1% (0.5 ppm) 24 hours pretreatment + UVB 60 mJ/cm^2): 70%; Tail Moment ([4]; peptide 1% (0.5 ppm) 24 hours pretreatment + UVB 60 mJ/cm^2, UVB alone 170.27, control 1.66): 51.36; reduction in Tail Moment versus UVB condition [5]: 55%; frequency of keratinocyte containing melanosomes compared to the control ([6]; peptide 0.5% (0.5 ppm)): partially restored; frequency of keratinocyte containing melanosomes compared to the control ([6]; peptide 1% (1 ppm)): fully restored
